In patent publication US20230390396A1, “COMPOSITION CONTAINING 5-AMINOLEVULINIC ACID HYDROCHLORIDE” (priority 2020, published 2023):

What was measured:
[1] = tested on: patient's brain tumor area; experiment: Fluorescence visualization of brain tumor after drinking 5-aminolevulinic acid hydrochloride; assay type: in vivo, human; settings: 19 mg/kg oral, 3 hours before induction of anesthesia, operation 6 hours after drinking; FIG. 1
[2] = Antioxidative activity (DPPH radical scavenging, modified Blois method); settings: 2 mL sample + 2 mL 0.2 mM DPPH, 30 minutes, absorbance at 517 nm
Method: Radical scavenging activity was used using the cosmetic composition for acne skin improvement according to the example as a sample.
The antioxidative activity (electron donation ability, EDA %) of a sample was measured by modifying the Blois method. 2 mL of the sample was mixed with 2 mL of a 0.2 mM DPPH(1,1-diphenyl-2-picryl hydrazyl) solution, and then allowed to stand for 30 minutes, followed by measuring an absorbance at 517 nm.
The radical scavenging activity was expressed as the rate of decrease in absorbance between the sample-added group and the non-added group. The radical scavenging activity was calculated according to the following equation, and results are summarized in [Table 2] below. As a sample for the control, BHT (synthetic antioxidant) was used.
Radical scavenging activity (%)=(1−Absorbance of sample-added group/Absorbance of non-added group)×100

Structure (SMILES)	Fluorescence of patient's brain tumor area at surgery [1]	Radical scavenging activity [2]
Cl.NCC(=O)CCC(=O)O [5-aminolevulinic acid hydrochloride]	emitting a fluorescent color	–
Cc1cc(C(C)(C)C)c(O)c(C(C)(C)C)c1 [Control, BHT]	–	55.3 ± 0.45%
